pEC50, pIC50: −log10 of the molar value.
Legend:
KRAS(G12D)/SOS1 = molecular target: T1, KRAS(G12D)/SOS1 (Homo sapiens, UniProt P01116, G12D); test: KRAS(G12D)/SOS1 homogeneous time-resolved fluorescence (HTRF) assay; assay type: binding; conditions: absence of GTP; 4° C., 3 hr
T1 construct: purchased Cisbio 63ADK000CB17PEH
Experimental: Binding of test compounds to KRAS(G12D) target protein, which in turn blocks KRAS(G12D) interaction with the SOS1 protein, was measured in the absences of GTP by homogeneous time-resolved fluorescence using the KRAS-G12D/SOS1 Binding Assay Kit (Cisbio, 63ADK000CB17PEH), following the manufacturer's instructions, except as noted. 3-fold serial dilutions of each test compound were prepared ranging from 20 µM to 1.02 nM. The test compound was mixed and incubated with reaction components, incubated in a sealed plate at 4° C. for 3 hr and fluorescence was measured using a PerkinElmer Envision plate reader. The KRAS(G12D)-SOS1 IC50 values (the concentration of 50% of the maximal inhibition) were calculated using GraphPad Prism 7 software.

[1] = system: AGS gastric carcinoma cells [heterozygous G12D]; test: Cancer cell line proliferation (CellTiter-Glo), AGS; assay type: cell-based; conditions: Homo sapiens, 72 hr treatment, read-out: AGS CTG (EC50)
Experimental: (§1) The following cancer cell lines were employed: AGS gastric carcinoma [heterozygous G12D](ATCC, CRL-1739); A-427 lung carcinoma [heterozygous G12D](ATCC, HTB-53); ASPC1 pancreatic adenocarcinoma [homozygous G12D](ATCC, CRL-1682) and SW1990 pancreatic adenocarcinoma [homozygous G12D](ATCC CRL-2172). Cell lines were cultured essentially according to ATCC recommendations.
(§2) AGS, A-427, ASPC1, SW1990, and GP2D cells were plated in 96-well tissue culture plates at 4,000 cells/well and incubated at 37° C./5% CO2 for 72 hr in 100 μl of media. 3-fold serial dilutions of each test compound were prepared ranging from 20 μM to 1.02 nM. Each cell line was then treated with test compounds at various concentrations with a final concentration of 0.5% DMSO/well, and then incubated at 37° C./5% CO2 for 72 hr. 100 µl of CellTiter-Glo® Reagent (Promega Corporation, Madison, WI) was added to each well and processed according manufacturer's protocol. Results were analyzed and EC50 values were calculated in GraphPad 7 software.

[2] = system: A-427 lung carcinoma cells [heterozygous G12D]; test: Cancer cell line proliferation (CellTiter-Glo), A-427; assay type: cell-based; conditions: Homo sapiens, A-427 cells, 72 hr treatment, read-out: A427 CTG (EC50)
Experimental: as §1, §2

[3] = system: ASPC1 pancreatic adenocarcinoma cells [homozygous G12D]; test: Cancer cell line proliferation (CellTiter-Glo), ASPC1; assay type: cell-based; conditions: Homo sapiens, ASPC1, 72 h, 72 hr treatment, read-out: ASPC-1 CTG (EC50)
Experimental: as §1, §2

T1 sequence (P01116 1-188 isoform P01116-2 G12D): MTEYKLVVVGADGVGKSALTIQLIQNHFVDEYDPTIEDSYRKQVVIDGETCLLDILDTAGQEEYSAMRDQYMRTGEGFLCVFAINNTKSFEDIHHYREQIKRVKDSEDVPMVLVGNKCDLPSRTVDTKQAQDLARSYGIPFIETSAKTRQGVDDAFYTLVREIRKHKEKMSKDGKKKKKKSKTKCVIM

SMILES	pIC50 (KRAS(G12D)/SOS1)	pEC50 [1]	pEC50 [2]	pEC50 [3]
CC(C)c1cc(-c2nnc(O)n2-c2ccc(CN3CCN([C@H]4C[C@@H](COc5nc(N6CC7CCC(C6)N7)c6cnc(-c7cc(O)cc8ccccc78)c(F)c6n5)N(C)C4)CC3)cc2)c(O)cc1O [Compound 33]	> 7.00	6.00 to 7.00	< 6.00	< 6.00
CCNC(=O)c1nnc(-c2cc(C(C)C)c(O)cc2O)n1-c1ccc(CN(C)[C@@H]2CN3CCC[C@@]3(COc3nc(N4CC5CCC(C4)N5)c4cnc(-c5cc(O)cc6ccccc56)c(F)c4n3)C2)cc1 [Compound 41]	> 7.00	6.00 to 7.00	< 6.00	6.00 to 7.00
C#Cc1cccc2cccc(-c3ncc4c(N5CC6CCC(C5)N6)nc(OCC5(CN6CCN(C(=O)C7CCN(Cc8ccc(-n9c(O)nnc9-c9cc(C(C)C)c(O)cc9O)cc8)CC7)CC6)CC5)nc4c3F)c12 [Compound 18]	> 7.00	6.00 to 7.00	6.00 to 7.00	< 6.00
CC(C)c1cc(C(=O)N2Cc3ccc(CN(C)[C@H]4CN5CCC[C@@]5(COc5nc(N6CC7CCC(C6)N7)c6cnc(-c7cc(O)cc8ccccc78)c(F)c6n5)C4)cc3C2)c(O)cc1O [Compound 44]	> 7.00	6.00 to 7.00	6.00 to 7.00	< 6.00
CC(C)c1cc(-c2nnc(O)n2-c2ccc(CN3CCN([C@H]4C[C@@H](COc5nc(N6CC7CCC(C6)N7)c6cnc(-c7cccc8ccccc78)c(F)c6n5)N(C)C4)CC3)cc2)c(O)cc1O [Compound 30]	< 6.00	6.00 to 7.00	6.00 to 7.00	< 6.00
CC(C)c1cc(-c2nnc(O)n2-c2ccc(CN3CCN(C(=O)C4CCN([C@H]5C[C@@H](COc6nc(N7CC8CCC(C7)N8)c7cnc(-c8cccc9cccc(Cl)c89)c(F)c7n6)N(C)C5)CC4)CC3)cc2)c(O)cc1O [Compound 5]	> 7.00		< 6.00	< 6.00
CC(C)c1cc(-c2nnc(O)n2-c2ccc(CN3CCN(C(=O)C4CCN([C@H]5C[C@@H](COc6nc(N7CC8CCC(C7)N8)c7cnc(-c8cccc9cccc(Cl)c89)cc7n6)N(C)C5)CC4)CC3)cc2)c(O)cc1O [Compound 4]	6.00 to 7.00			< 6.00
CCc1cc(-c2nnc(C(=O)NCC(F)(F)F)n2-c2ccc(CN3CCN([C@H]4C[C@@H](COc5nc(N6CC7CCC(C6)N7)c6cnc(-c7cccc8cccc(OC)c78)c(F)c6n5)N(C)C4)CC3)cc2)c(O)cc1O [Compound 105]	< 6.00	6.00 to 7.00	6.00 to 7.00	
CC(C)c1cc(C(=O)N2Cc3ccc(CN4CCC(C(=O)N5CCN([C@H]6C[C@@H](COc7nc(N8CC9CCC(C8)N9)c8cnc(-c9cccc%10cccc(F)c9%10)c(F)c8n7)N(C)C6)CC5)CC4)cc3C2)c(O)cc1O [Compound 92]	6.00 to 7.00	6.00 to 7.00	6.00 to 7.00	
Cc1cccc(-c2ncc3c(N4CC5CCC(C4)N5)nc(OC[C@@H]4C[C@H](N5CCN(Cc6ccc(-n7c(C(=O)NC(C)C(F)(F)F)nnc7-c7cc(C(C)C)c(O)cc7O)cc6)CC5)CN4C)nc3c2F)c1C (stereo partly shown) [Compound 82]	< 6.00	6.00 to 7.00	6.00 to 7.00	
CC(C)c1cc(-c2nnc(C(=O)NC(C)C(F)(F)F)n2-c2ccc(CN3CCN([C@H]4C[C@@H](COc5nc(N6CC7CCC(C6)N7)c6cnc(-c7cc(O)cc8ccccc78)c(F)c6n5)N(C)C4)CC3)cc2)c(O)cc1O (stereo partly shown) [Compound 100]	> 7.00	> 7.00	6.00 to 7.00	
C#Cc1cccc2cccc(-c3ncc4c(N5CC6CCC(C5)N6)nc(OCCN5CCN(CCN(CC)C(=O)c6cc(C(C)C)c(O)cc6O)CC5)nc4c3F)c12 [Compound 75]	6.00 to 7.00	< 6.00	< 6.00	
CCc1cc(-c2nnc(C(=O)NCC(F)(F)F)n2-c2ccc(CN3CCN([C@H]4C[C@@H](COc5nc(N6CC7CCC(C6)N7)c6cnc(-c7cccc(C)c7C)c(F)c6n5)N(C)C4)CC3)cc2)c(O)cc1O [Compound 81]	< 6.00	6.00 to 7.00	6.00 to 7.00	
